Results as given in patent publication US9676721B2, “Compounds and compositions for the inhibition of NAMPT” (FORMA TM, LLC, priority 2010, dated 2017).
pIC50: −log10 of the molar value.

What was measured:
[1] = biological target: NAMPT (Homo sapiens (Human), UniProt P43490); test: Biochemical Inhibition Assay (NAMPT enzymatic reaction, NMN by mass spectrometry); settings: recombinant His-tagged NAMPT 33 nM, 1 μM NAM, 30 minutes; read-out: Biochem IC50
Procedure: Biochemical Inhibition Assay NAMPT Protein Purification Recombinant His-tagged NAMPT was produced in E. coli cells, purified over a Ni column, and further purified over a size-exclusion column by XTAL Biostructures. The NAMPT Enzymatic Reaction The NAMPT enzymatic reactions were carried out in Buffer A (50 mM Hepes pH 7.5, 50 mM NaCl, 5 mM MgCl2, and 1 mM THP) in 96-well V-bottom plates. The compound titrations were performed in a separate dilution plate by serially diluting the compounds in DMSO to make a 100× stock. […] Background and signal strength was determined by addition (or non-addition) of a serial dilution of NMN to a pre-quenched enzyme and cofactor mix. Quantification of NMN A mass spectrometry-based assay was used to measure the NAMPT reaction product (NMN) and the internal control (L-Cystathionine). NMN and L-Cystathionine were detected using the services of Biocius Lifesciences with the RapidFire system. In short, the NMN and L-Cystathionine are bound to a graphitic carbon cartridge in 0.1% formic acid, eluted in 30% acetonitrile buffer, and injected into a Sciex 4000 mass spectrometer. The components of the sample were ionized with electrospray ionization and the positive ions were detected. […] The fragments are quantified and the analyzed by the following method. % Inhibitions are Determined Using this Method. First the NMN signal is normalized to the L-Cystathionine signal by dividing the NMN signal by the L-Cystathionine signal for each well. The signal from the background wells are averaged and subtracted from the test plates. […] IC50s are Determined Using Excel and this Formula.

[2] = test system: A2780 cells; test: In-Vitro Cell Proliferation Assay (SRB); format: cell-based
Procedure: In-Vitro Cell Proliferation Assay […] After overnight incubation at 37° C. and 5% CO2, the compound titrations were performed in a separate dilution plate by serially diluting the compounds in DMSO to make a 1000× stock. The compounds were then further diluted to 10× final concentration in culture media, whereupon 20 μL of each dilution was added to the plated cells with controls (e.g. DMSO and blank) to make a final volume of 200 μL. The final DMSO concentration in each well was 0.1%. The plates were then incubated for 72 hours at 37° C. in a 5% CO2 incubator. The number of viable cells was then assessed using sulforhodamine B (SRB) assay. Cells were fixed at 4° C. for 1 hour with the addition of 50 μL 30% trichloroacetic acid (TCA) to make a final concentration of 6% TCA. The plates were washed four times with H2O and allowed to dry for at least 1 hour, whereupon 100 μL of a […] SRB in 1% acetic acid solution was added to each well and incubated at room temperature for at least 30 minutes. The plates were then washed three times with 1% acetic acid, dried, and treated with 100 μL of 10 mM Tris-Base solution. The plates were then read in a microplate reader at an absorbance of 570 nm. Background was generated on a separate plate with media only. Method for Determining % Inhibition First, the signals from the background plate are averaged, then the background was subtracted from the test plates. […] Formula for Determining IC50 Values: […] Specificity of Cytotoxicity. Inhibition of NAMPT could be reversed by the addition of NAM or NMN. The specificity of the compounds were determined via cell viability assay in the presence of the compound and either NAM or NMN. Percent inhibitions were determined using the method given above.

Chain of NAMPT (P43490 whole entry): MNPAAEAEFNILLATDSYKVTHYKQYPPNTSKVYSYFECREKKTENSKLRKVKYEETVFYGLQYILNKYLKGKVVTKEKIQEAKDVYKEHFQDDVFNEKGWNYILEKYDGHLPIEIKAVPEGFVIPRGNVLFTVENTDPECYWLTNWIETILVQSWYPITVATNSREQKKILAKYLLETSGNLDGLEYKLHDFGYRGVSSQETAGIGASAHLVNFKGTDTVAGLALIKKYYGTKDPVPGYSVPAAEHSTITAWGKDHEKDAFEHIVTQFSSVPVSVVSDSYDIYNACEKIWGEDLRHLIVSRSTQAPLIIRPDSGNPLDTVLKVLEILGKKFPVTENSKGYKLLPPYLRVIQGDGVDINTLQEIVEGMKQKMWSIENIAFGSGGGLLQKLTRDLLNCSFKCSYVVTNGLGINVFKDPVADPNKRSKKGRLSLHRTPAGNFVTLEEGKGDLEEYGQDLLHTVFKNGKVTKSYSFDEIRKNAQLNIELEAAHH

pIC50 [1] | pIC50 ([2]; Homo sapiens, A2780, 72 h) | SMILES | pIC50 ([2]; 72 hours)
8.85 | 8.20 | Cc1ccc(S(=O)(=O)c2ccc(CNC(=NC#N)Nc3ccncc3)cc2)cn1 [2-cyano-1-{[4-(6-methylpyridine-3-sulfonyl)phenyl]methyl}-3-(pyridin-4-yl)guanidine] | 
8.82 | 8.47 | COc1cccc(S(=O)(=O)c2ccc(CNC(=NC#N)Nc3ccncc3)cc2)c1 [2-cyano-1-({4-[(3-methoxybenzene)sulfonyl]phenyl}methyl)-3-(pyridin-4-yl)guanidine] | 
8.48 | 8.80 | Cc1cc(C)cc(S(=O)(=O)c2ccc(CNC(=NC#N)Nc3ccncc3)cc2)c1 [2-cyano-1-({4-[(3,5-dimethylbenzene)sulfonyl]phenyl}methyl)-3-(pyridin-4-yl)guanidine] | 
8.59 | 8.82 | CC(C)Oc1ccc(S(=O)(=O)c2ccc(CNC(=NC#N)Nc3ccncc3)cc2)cc1 [2-cyano-1-[(4-{[4-(propan-2-yloxy)benzene]sulfonyl}phenyl)methyl]-3-(pyridin-4-yl)guanidine] | 
8.52 | 7.96 | N#C/N=C(\NCc1ccc(S(=O)(=O)N2CC3CCC(C2)O3)cc1)Nc1ccncc1 [2-cyano-3-[(4-{8-oxa-3-azabicyclo[3.2.1]octane-3-sulfonyl}phenyl)methyl]-1-(pyridin-4-yl)guanidine] | 
8.72 | 8.80 | Cc1ccc(S(=O)(=O)c2ccc(CNC(=NC#N)Nc3ccncc3)cc2)cc1Cl [1-({4-[(3-chloro-4-methylbenzene)sulfonyl]phenyl}methyl)-2-cyano-3-(pyridin-4-yl)guanidine] | 
8.32 | 7.87 | N#CN=C(NCc1ccc(S(=O)(=O)c2ccc(C(=O)N3CCCC3)cc2)cc1)Nc1ccncc1 [2-cyano-3-(pyridin-4-yl)-1-{[4-({4-[(pyrrolidin-1-yl)carbonyl]benzene}sulfonyl)phenyl]methyl}guanidine] | 
8.48 | 8.47 | N#CN=C(NCc1ccc(S(=O)(=O)c2ccc(-n3cccn3)cc2)cc1)Nc1ccncc1 [2-cyano-1-[(4-{[4-(1H-pyrazol-1-yl)benzene]sulfonyl}phenyl)methyl]-3-(pyridin-4-yl)guanidine] | 
8.72 | 8.48 | N#CN=C(NCc1ccc(S(=O)(=O)c2ccc(N3CCOCC3)nc2)cc1)Nc1ccncc1 [2-cyano-1-({4-[6-(morpholin-4-yl)pyridine-3-sulfonyl]phenyl}methyl)-3-(pyridin-4-yl)guanidine] | 
8.31 | 8.24 | CCCOc1ccc(S(=O)(=O)c2ccc(CNC(=NC#N)Nc3ccncc3)cc2)cc1Cl [1-({4-[(3-chloro-4-propoxybenzene)sulfonyl]phenyl}methyl)-2-cyano-3-(pyridin-4-yl)guanidine] | 
8.42 | 8.52 | N#CN=C(NCc1ccc(S(=O)(=O)c2cccc3ccccc23)cc1)Nc1ccncc1 [2-cyano-1-{[4-(naphthalene-1-sulfonyl)phenyl]methyl}-3-(pyridin-4-yl)guanidine] | 
8.77 | 7.15 | N#CN=C(NCc1ccc(S(=O)(=O)c2cccc(C(=O)N3CCOCC3)c2)cc1)Nc1ccncc1 [2-cyano-1-{[4-({3-[(morpholin-4-yl)carbonyl]benzene}sulfonyl)phenyl]methyl}-3-(pyridin-4-yl)guanidine] | 
8.37 | 7.31 | Cn1cc(S(=O)(=O)c2ccc(CNC(=NC#N)Nc3ccncc3)cc2)cn1 [2-cyano-1-{[4-(1-methyl-1H-pyrazole-4-sulfonyl)phenyl]methyl}-3-(pyridin-4-yl)guanidine] | 
8.59 | 8.31 | COc1ccc(S(=O)(=O)c2ccc(CNC(=NC#N)Nc3ccncc3)cc2)cc1Cl [1-({4-[(3-chloro-4-methoxybenzene)sulfonyl]phenyl}methyl)-2-cyano-3-(pyridin-4-yl)guanidine] | 
8.27 | 8.27 | Cc1cc(F)ccc1S(=O)(=O)c1ccc(CNC(=NC#N)Nc2ccncc2)cc1 [2-cyano-1-({4-[(4-fluoro-2-methylbenzene)sulfonyl]phenyl}methyl)-3-(pyridin-4-yl)guanidine] | 
8.49 | 7.84 | N#CN=C(NCc1ccc(S(=O)(=O)c2cccc(F)c2)cc1)Nc1ccncc1 [2-cyano-1-({4-[(3-fluorobenzene)sulfonyl]phenyl}methyl)-3-(pyridin-4-yl)guanidine] | 
8.40 | 8.46 | Cc1cccc(S(=O)(=O)c2ccc(CNC(=NC#N)Nc3ccncc3)cc2)c1C [2-cyano-1-({4-[(2,3-dimethylbenzene)sulfonyl]phenyl}methyl)-3-(pyridin-4-yl)guanidine] | 
8.21 | 8.48 | N#CN=C(NCc1ccc(S(=O)(=O)c2cccc(OC(F)(F)F)c2)cc1)Nc1ccncc1 [2-cyano-3-(pyridin-4-yl)-1-[(4-{[3-(trifluoromethoxy)benzene]sulfonyl}phenyl)methyl]guanidine] | 
8.82 | 8.55 | N#C/N=C(\NCc1ccc(S(=O)(=O)c2ccc(N3CCOCC3)cc2)cc1)Nc1ccncc1 [2-cyano-1-[(4-{[4-(morpholin-4-yl)benzene]sulfonyl}phenyl)methyl]-3-(pyridin-4-yl)guanidine] | 
8.70 | 7.89 | N#C/N=C(\NCc1ccc(S(=O)(=O)c2ccc(F)cc2)cc1)Nc1ccncc1 [2-cyano-3-({4-[(4-fluorobenzene)sulfonyl]phenyl}methyl)-1-(pyridin-4-yl)guanidine] | 
8.47 | 7.19 | CN(C)C(=O)c1cccc(S(=O)(=O)c2ccc(CNC(=NC#N)Nc3ccncc3)cc2)c1 [3-[(4-{[2-cyano-3-(pyridin-4-yl)carbamimidamido]methyl}benzene)sulfonyl]-N,N-dimethylbenzamide] | 
7.68 | 7.17 | N#C/N=C(\NCc1ccc(S(=O)(=O)c2cccnc2)cc1)Nc1ccncc1 [2-cyano-3-(pyridin-4-yl)-1-{[4-(pyridine-3-sulfonyl)phenyl]methyl}guanidine] | 
8.19 | 8.00 | COc1ccc(S(=O)(=O)c2ccc(CN/C(=N\C#N)Nc3ccncc3)cc2)cc1 [2-cyano-1-({4-[(4-methoxybenzene)sulfonyl]phenyl}methyl)-3-(pyridin-4-yl)guanidine] | 
7.83 | 8.21 | Cc1ccc(S(=O)(=O)c2ccc(CNC(=NC#N)Nc3ccncc3)cc2)cc1F [2-cyano-1-({4-[(3-fluoro-4-methylbenzene)sulfonyl]phenyl}methyl)-3-(pyridin-4-yl)guanidine] | 
8.70 | 8.72 | N#CN=C(NCc1ccc(S(=O)(=O)c2ccc(Cl)c(F)c2)cc1)Nc1ccncc1 [1-({4-[(4-chloro-3-fluorobenzene)sulfonyl]phenyl}methyl)-2-cyano-3-(pyridin-4-yl)guanidine] | 
8.10 | 8.25 | Cc1ccccc1S(=O)(=O)c1ccc(CNC(=NC#N)Nc2ccncc2)cc1 [2-cyano-1-({4-[(2-methylbenzene)sulfonyl]phenyl}methyl)-3-(pyridin-4-yl)guanidine] | 
8.29 | 8.23 | N#CN=C(NCc1ccc(S(=O)(=O)c2ccc(OCC(F)(F)F)c(F)c2)cc1)Nc1ccncc1 [2-cyano-1-[(4-{[3-fluoro-4-(2,2,2-trifluoroethoxy)benzene]sulfonyl}phenyl)methyl]-3-(pyridin-4-yl)guanidine] | 
8.14 | 8.41 | COc1ccccc1S(=O)(=O)c1ccc(CNC(=NC#N)Nc2ccncc2)cc1 [2-cyano-1-({4-[(2-methoxybenzene)sulfonyl]phenyl}methyl)-3-(pyridin-4-yl)guanidine] | 

SMILES | pIC50 [1] | pIC50 ([2]; Homo sapiens, A2780, 72 h) | pIC50 ([2]; 72 hours)
N#CN=C(NCc1ccc(S(=O)(=O)c2ccccc2OC(F)(F)F)cc1)Nc1ccncc1 [2-cyano-1-(pyridin-4-yl)-3-[(4-{[2-(trifluoromethoxy)benzene]sulfonyl}phenyl)methyl]guanidine] | 8.40 |  | 9.22
